From patent publication US5238938A, “Indole derivatives” (Otsuka Pharmaceutical Co., Ltd., priority 1989, dated 1993)

Test system: releasing of lysosome from the neutrocytes of rat
Assay: Inhibitory effect against the releasing of lysosome from the neutrocytes of rat
Format: cell-based
Details: 0.25 h; rat neutrocytes 5×10^5 cells/ml; FMLP 10^-6 M + cytochalasin B 5 μg/ml; 15 minutes; OD550; read-out: 50% inhibitory concentration (IC50), releasing of lysosome
Protocol: Inhibitory effect against the releasing of lysosome from the neutrocytes of rat
The neutrocytes of rat were samples from the abdominal cavity of the reat 16 hours after the administration of 10 ml of 1%-casein solution (physiological saline solution).
Reaction of the releasing of lysosome from the neutrocytes of rat was determined by means of the method described in an article by T. Matsumoto, K. Takeshige and S. Minakami: Biochemical and Biophysical Research Communications, Vol. 88, No. 3, pp. 974-979, (1979).
The neutrocytes being sampled were added to Hank's soluiton so as to make the concentraiton thereof as 5×10^5 cells/ml, and the test compound of indole derivative of the present invention was added thereto to make the test group sample. On the other hand, water was added in place of the indole derivative of the present invention to make the control group sample. Each of the test group sample and the control group sample was subjected to pre-incubation at 37° C. for 1 minute.
As to the stimulating agents, 10^-6 M of FMLP (formylmethionyl leucyl phenylalanine) and 5 μg/ml of cytochalasin B were added to the solution. Thus, obtained mixture of the solution was reacted by incubating for 15 minutes. After the incubation, the mixture of the solution was subjected to centrifugation at 2,000 rpm for 10 minutes. The supernatant (0.2 ml) was admixed with 0.5 ml of 0.1M-acetic acid buffer solution (pH 4.5) in which 0.2 mM of phenolphthalein glucuronic acid was dissolved. Then the resulting mixture of the solutions was reacted at 37° C. for 5 hours by incubation. After the reaction, 1N-NaOH solution was added to the reaction mixture so as to make the pH thereof to pH 8-9, and the optical absorbance of both test group samples and control group samples were determined at 550 nm (OD550).
The 50% inhibitory concentration (IC50) values were obtained by calculating as the ratio of OD550 of the test group samples to that of the control group samples.

Row | IC50 | Molecule
1 | 50 µg/mL | COc1c(CC2C(=O)Nc3ccccc32)[nH]c(=O)c(CC(C)C)[n+]1[O-] (stereo not drawn) [Compound E-39, 2-Isobutyl-5-methxoy-6-(oxindol-3-yl)methyl-1,2-dihydropyrazin-2-one 4-oxide]
2 | 12 µg/mL | COc1c(Cn2ccc3cc(C#N)ccc32)[nH]c(=O)c(CC(C)C)[n+]1[O-] [Compound E-36o, 6-[(5-cyano)indol-1-yl]methyl-3-isobutyl-5-methoxy-1,2-dihydropyrazin-2-one4-oxide]
3 | 50 µg/mL | CC(C)/C=c1\[nH]c(=O)/c(=C/c2c[nH]c3ccccc23)[nH]c1=O [Compound A-34, (Z,Z)-3-(indol-3-yl)methylidene-6-isobutylidenepiperazine-2,5-dione]
4 | 8 µg/mL | COc1c(Cc2c(-c3ccccc3)[nH]c3ccccc23)[nH]c(=O)c(CC(C)C)[n+]1[O-] [Compound E-34g, 3-Isobutyl-5-methoxy-6-[(2-phenyl)indol-3-yl]methyl-1,2-dihydropyrazin-2-one 4-oxide]
5 | 20 µg/mL | COc1nc(Cc2c[nH]c3ccccc23)c(OC)[n+]([O-])c1CC(C)C [Compound A-60, 3-(indol-3-yl)methyl-6-isobutyl-2,5-dimethoxypyrazine 1-oxide]
6 | 50 µg/mL | CC(C)Cc1c(=O)[nH]c(Cc2c[nH]c3ccccc23)c[n+]1[O-] [Compound A-84, 6-(indol-3-yl)methyl-3-isobutyl-1,2-dihydropyrazin-2-one 4-oxide]
7 | 20 µg/mL | COc1c(Cc2c[nH]c3ccccc23)n(C)c(=O)c(CC(C)C)[n+]1[O-] [Compound A-59, 6-(indol-3-yl)methyl-3-isobutyl-5-methoxy-1-methyl-1,2-dihydropyrazin-2-one 4-oxide]
8 | 50 µg/mL | COC(=O)n1cc(Cc2nc(Cl)c(CC(C)C)[n+]([O-])c2OC)c2ccccc21 [Compound A-48, 3-Chloro-2-isobutyl-5-[(1-methoxycarbonyl)indol-3-yl]methyl-6-methoxypyrazineyl-oxide]
9 | 20 µg/mL | COn1c(CC(C)C)c(Cl)nc(Cc2c[nH]c3ccccc23)c1=O [Compound A-45, 5-chloro-3-(indol-3-yl)methyl-6-isobutyl-1-methoxy-1,2-dihydropyrazin-2-one]
10 | 50 µg/mL | CC(C)C[C@H]1C(=O)N[C@@H](Cc2c[nH]c3ccccc23)C(=O)N1OCc1ccccc1 [Compound A-35d, (3S,6S)-1-Benzyloxy-3-(indol-3-yl)methyl-6-isobutyl-piperazine-2,5-dione]
11 | 43 µg/mL | COn1c(C)c(C)nc(Cc2c[nH]c3ccccc23)c1=O [Compound A-53, 3-(Indol-3-yl)methyl-1-methoxy-5,6-dimethyl-1,2-dihydropyrazin-2-one]

The remaining lines, values behind:

Row | Molecule | IC50
12 | COc1nc(CC(C)C)c(=O)n(C)c1Cc1c[nH]c2ccccc12 [Compound A-6b, 6-(Indol-3-yl)methyl-3-isobutyl-5-methoxy-1-methyl-1,2-dihydropyrazin-2-one] | 30 µg/mL
13 | O=C1CN(O)C(=O)[C@H](Cc2c[nH]c3ccccc23)N1 [Compound A-29c, (3S)-1-Hydroxy-3-(indol-3-yl)methylpiperazine-2,5-dione] | 50 µg/mL
14 | CC(C)Cc1cnc(Cc2c[nH]c3ccccc23)cn1 [Compound A-27, 2-(indol-3-yl)methyl-5-isobutylpyrazine] | 25 µg/mL
15 | CC(C)Cc1nc(Cl)c(Cc2c[nH]c3ccccc23)nc1Cl [Compound A-26, 3-(Indol-3-yl)methyl-2,5-dichloro-6-isobutylpyrazine] | 10 µg/mL
16 | CCOc1nc(CC(C)C)c(OCC)nc1Cc1c[nH]c2ccccc12 [Compound A-23, 3-(Indol-3-yl)methyl-2,5-diethoxy-6-isobutylpyrazine] | 50 µg/mL
17 | COc1nc(CC(C)C)c(OC)nc1Cc1c[nH]c2ccccc12 [Compound A-19, 3-(Indol-3-yl)methyl-6-isobutyl-2,5-dimethoxypyrazine] | 25 µg/mL
18 | COC1=N[C@@H](CC(C)C)C(=O)N(C)/C1=C\c1c[nH]c2ccccc12 [Compound A-5b, (3S,Z)-6-(Indol-3-yl)methylidene-3-isobutyl-5-methoxy-1-methyl-1,2,3,6-tetrahydropyrazin-2-one] | 25 µg/mL
19 | CC(C)C[C@@H]1NC(=O)/C(=C/c2c[nH]c3ccccc23)N(C)C1=O [Compound A-4b, (3S,Z)-6-(Indol-3-yl)methylidene-3-isobutyl-1-methylpiperazine-2,5-dione] | 30 µg/mL
20 | COc1nc(CC(C)C)c(OC(C)=O)nc1Cc1c[nH]c2ccccc12 [Compound A-20, 2-Acetoxy-6-(indol-3-yl)methyl-3-isobutyl-5-methoxypyrazine] | 20 µg/mL
21 | COc1nc(-c2ccccc2)c(=O)n(C)c1Cc1c[nH]c2ccccc12 [Compound A-6a, 6-(indol-3-yl)methyl-5-methoxy-1-methyl-3-phenyl-1,2-dihydropyrazin-2-one] | 30 µg/mL
22 | CN1C(=O)C(c2ccccc2)NC(=O)/C1=C/c1c[nH]c2ccccc12 (stereo not drawn) [Compound A-4a, (Z)-6-(indol-3-yl)methylidene-1-methyl-3-phenylpiperazine-2,5-dione] | 35 µg/mL
23 | COc1c(Cc2c[nH]c3ccccc23)nc(OC(C)=O)c(CC(C)C)[n+]1[O-] [Compound E-65, 3-Acetoxy-5-(indol-3-yl)methyl-2-isobutyl-6-methoxypyrazine 1-oxide] | 9 µg/mL

Same assay, conditions: rat neutrocytes 5×10^5 cells/ml; FMLP 10^-6 M + cytochalasin B 5 μg/ml; 15 minutes; OD550

Row | 50% inhibitory concentration (IC50), releasing of lysosome | Molecule
24 | 20 µg/mL | 6-(indol-3-yl)methyl-2-isobutyl-5-methyl-1,2-dihydropyrazin-3-one 4-oxide [Compound A-82a]
